# Measured values published in US10428017B2, “Modulators of the cystic fibrosis transmembrane conductance regulator protein and methods of use” (AbbVie S.à.r.l., priority 2017, dated 2019).
# Like-named read-outs stand apart in the source and are kept apart here.
# Target: T1, F508delCFTR (Homo sapiens, UniProt P13569, DEL508-508)
# T1 construct: expressed in transfected cells; host or cells: CFBE4lo-F508delCFTR-HRP cells (human lung derived epithelial cell line, doxycycline-inducible)
# Test: Cell Surface Expression-Horse Radish Peroxidase (CSE-HRP) Assay
# Assay type: cell-based
# Conditions: for EC50: CFBE4lo-F508delCFTR-HRP cells, 18-24 hours at 33° C.; for Emax / Maximum % activity (with co-corrector): maximum at any tested concentration (up to 20 μM), normalized to on-plate positive control (2 μM co-corrector); for Maximum % activity (with co-corrector): with co-corrector 2 μM
# Protocol: Cell Surface Expression-Horse Radish Peroxidase (CSE-HRP) Assay
# A cellular assay for measuring the F508delCFTR cell surface expression after correction with test compounds either without or with a co-corrector (2 μM of 3-[(2R,4R)-4-({[1-(2,2-difluoro-1,3-benzodioxol-5-yl)cyclopropyl]carbonyl}amino)-7-methoxy-3,4-dihydro-2H-chromen-2-yl]benzoic acid), was developed in human lung derived epithelial cell line (CFBE4lo−) (Veit G et al, (2012) Mol Biol Cell. 23(21): 4188-4202). The development was achieved by expressing the F508delCFTR mutation along with a horseradish peroxidase (HRP) in the fourth exofacial loop, and then measuring the HRP activity using luminescence readout from these cells, CFBE4lo-F508delCFTR-HRP, that were incubated overnight with the test corrector compounds, either without or with the co-corrector. For this primary assay, the CFBE4lo-F508delCFTR-HRP cells were plated in 384-well plates (Greiner Bio-one; Cat 781080) at 4,000 cells/well along with 0.5 μg/mL doxycycline to induce the F508delCFTR-HRP expression and further incubated at 37° C., 5% CO2 for 72 hours. The test compounds were then added either without or with a co-corrector at the required concentrations and further incubated for 18-24 hours at 33° C. The highest concentration tested was 20 μM with an 8-point concentration response curve using a 3-fold dilution in both the test compound without or with the co-corrector. Three replicate plates were run to determine one EC50. All plates contained negative controls (dimethyl sulfoxide, DMSO) and positive control (2 μM of 3-[(2R,4R)-4-({[1-(2,2-difluoro-1,3-benzodioxol-5-yl)cyclopropyl]carbonyl}amino)-7-methoxy-3,4-dihydro-2H-chromen-2-yl]benzoic acid) as well as on-plate concentration response of the positive control. Post incubation, the plates were washed 5× times with Dulbecco's phosphate buffered saline (DPBS), followed by the addition of the HRP substrate, luminol (50 μL), and measuring the HRP activity using luminescence readout on EnVision® Multilabel Plate Reader (Perkin Elmer; product number 2104-0010). The raw counts from the experiment were analyzed using Accelrys® Assay Explorer v3.3.
# Z′ greater than 0.5 was used as passing quality control criteria for the plates.
# The Z′ is defined as: 1−[3*SDPositive Control+3*SDNegative Control/Absolute(Meanpostivie Control−MeanNegative Control)] wherein “SD” is standard deviation.
# The % activity measured at each of the 8 test concentrations of the test compound added either without or with a co-corrector (2 μM of 3-[(2R,4R)-4-({[1-(2,2-difluoro-1,3-benzodioxol-5-yl)cyclopropyl]carbonyl}amino)-7-methoxy-3,4-dihydro-2H-chromen-2-yl]benzoic acid) was normalized to the on-plate positive control using the following formulae: % activity(Test compound without co-corrector)=[(test compound without co-corrector response−DMSO response)/(positive control response−DMSO response)]*100 % activity(Test compound with co-corrector)=[(test compound with co-corrector response−DMSO response)/(positive control response−DMSO response)]*100
# The maximum % activity achieved for the test compound either without or with a co-corrector at any tested concentration is presented in Table 1 along with the respective EC50's calculated using the following general sigmoidal curve with variable Hill slope equation (described as Model 42 in the Accelrys® Assay Explorer v3.3 software): y=(a−d)/(1+(x/c)^b)+d
# General sigmoidal curve with concentration, response, top, bottom, EC50 and Hill slope. This model describes a sigmoidal curve with an adjustable baseline, a. The equation can be used to fit curves where response is either increasing or decreasing with respect to the independent variable, “x”.
# “x” is a concentration of drug under test.
# “a” is the maximum response, and “d” is the minimum response
# “c” is the inflection point (EC50) for the curve. That is, “y” is halfway between the lower and upper asymptotes when x=c.
# “b” is the slope-factor or Hill coefficient. […]
# [1] = test compound without co-corrector, HRP luminescence readout, read-out: EC50 (without co-corrector)
# [2] = test compound without co-corrector
# [3] = with co-corrector 2 μM 3-[(2R,4R)-4-({[1-(2,2-difluoro-1,3-benzodioxol-5-yl)cyclopropyl]carbonyl}amino)-7-methoxy-3,4-dihydro-2H-chromen-2-yl]benzoic acid, read-out: EC50 (with co-corrector)
# T1 sequence (P13569 with tags, fused parts or gaps DEL508-508): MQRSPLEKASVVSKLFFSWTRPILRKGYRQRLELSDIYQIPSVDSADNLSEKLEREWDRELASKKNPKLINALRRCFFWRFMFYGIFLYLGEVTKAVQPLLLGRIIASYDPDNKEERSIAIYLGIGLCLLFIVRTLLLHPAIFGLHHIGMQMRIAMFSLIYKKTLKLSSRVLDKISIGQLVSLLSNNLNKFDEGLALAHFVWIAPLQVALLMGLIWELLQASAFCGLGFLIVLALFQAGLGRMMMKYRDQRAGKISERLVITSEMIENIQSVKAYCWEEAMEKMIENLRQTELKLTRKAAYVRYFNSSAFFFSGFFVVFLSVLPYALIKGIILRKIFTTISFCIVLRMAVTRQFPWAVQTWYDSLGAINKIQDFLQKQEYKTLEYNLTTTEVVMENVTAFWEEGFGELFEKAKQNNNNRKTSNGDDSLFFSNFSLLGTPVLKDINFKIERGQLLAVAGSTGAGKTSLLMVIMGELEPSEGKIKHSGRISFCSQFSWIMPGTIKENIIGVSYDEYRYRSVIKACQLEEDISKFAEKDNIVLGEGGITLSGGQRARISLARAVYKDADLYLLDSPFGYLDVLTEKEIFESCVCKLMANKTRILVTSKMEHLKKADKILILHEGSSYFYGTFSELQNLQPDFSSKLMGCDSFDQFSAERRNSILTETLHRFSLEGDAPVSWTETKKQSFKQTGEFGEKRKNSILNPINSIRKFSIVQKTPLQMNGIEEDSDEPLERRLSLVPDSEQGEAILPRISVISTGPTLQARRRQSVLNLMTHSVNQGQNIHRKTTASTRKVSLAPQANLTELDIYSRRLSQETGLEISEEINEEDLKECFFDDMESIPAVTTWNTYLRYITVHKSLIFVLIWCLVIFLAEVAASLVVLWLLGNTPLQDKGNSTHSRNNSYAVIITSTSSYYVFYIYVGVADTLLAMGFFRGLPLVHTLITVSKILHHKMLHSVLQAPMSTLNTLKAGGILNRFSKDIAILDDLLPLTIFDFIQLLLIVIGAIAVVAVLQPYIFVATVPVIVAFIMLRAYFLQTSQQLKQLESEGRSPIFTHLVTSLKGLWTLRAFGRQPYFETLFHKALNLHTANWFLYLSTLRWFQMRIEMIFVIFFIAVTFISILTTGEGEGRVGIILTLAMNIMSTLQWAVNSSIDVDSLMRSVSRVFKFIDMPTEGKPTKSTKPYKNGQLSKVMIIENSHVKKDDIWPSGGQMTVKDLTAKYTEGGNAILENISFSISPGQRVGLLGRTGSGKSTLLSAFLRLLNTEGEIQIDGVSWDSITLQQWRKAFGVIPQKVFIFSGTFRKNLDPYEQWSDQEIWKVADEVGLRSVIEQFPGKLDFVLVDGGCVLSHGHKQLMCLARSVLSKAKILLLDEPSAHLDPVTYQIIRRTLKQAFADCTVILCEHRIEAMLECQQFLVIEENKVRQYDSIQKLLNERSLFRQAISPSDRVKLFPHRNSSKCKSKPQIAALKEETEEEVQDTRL
Structure (SMILES),EC50 [1] [µM],Emax [2] [%],EC50 [3] [µM],Maximum % activity (with co-corrector)
"COc1cccc2c1C(C(=O)NS(=O)(=O)c1cccc3ccccc13)CCO2 (stereo not drawn) [Example 9, 5-methoxy-N-(naphthalene-1-sulfonyl)-3,4-dihydro-2H-1-benzopyran-4-carboxamide]",3 to 10,≥ 150,3 to 10,+++ (≥350)
"COc1ccc(Br)c2c1C(C(=O)NS(=O)(=O)c1cccc3ccccc13)CCO2 (stereo not drawn) [Example 11, 8-bromo-5-methoxy-N-(naphthalene-1-sulfonyl)-3,4-dihydro-2H-1-benzopyran-4-carboxamide]",< 3,≥ 150,< 3,+++ (≥350)
"COc1c(Br)cc(Br)c2c1C(C(=O)NS(=O)(=O)c1cccc3ccccc13)CCO2 (stereo not drawn) [Example 12, 6,8-dibromo-5-methoxy-N-(naphthalene-1-sulfonyl)-3,4-dihydro-2H-1-benzopyran-4-carboxamide]",3 to 10,≥ 150,3 to 10,+++ (≥350)
"COc1ccc(C2CCC2)c2c1C(C(=O)NS(=O)(=O)c1cccc3ccccc13)CCO2 (stereo not drawn) [Example 13, 8-cyclobutyl-5-methoxy-N-(naphthalene-1-sulfonyl)-3,4-dihydro-2H-1-benzopyran-4-carboxamide]",< 3,≥ 150,< 3,+++ (≥350)
"COc1ccc(C2CCCC2)c2c1C(C(=O)NS(=O)(=O)c1cccc3ccccc13)CCO2 (stereo not drawn) [Example 14, 8-cyclopentyl-5-methoxy-N-(naphthalene-1-sulfonyl)-3,4-dihydro-2H-1-benzopyran-4-carboxamide]",< 3,≥ 150,< 3,+++ (≥350)
"Cc1ccc2c(c1)C(C(=O)NS(=O)(=O)c1cccc3ccccc13)(c1ccccc1)CCO2 (stereo not drawn) [Example 18, 6-methyl-N-(naphthalene-1-sulfonyl)-4-phenyl-3,4-dihydro-2H-1-benzopyran-4-carboxamide]",3 to 10,50 to 150,< 3,+++ (≥350)
"O=C(NS(=O)(=O)c1cccc2ccccc12)C1(c2ccccc2)CCOc2ccc(Cl)cc21 (stereo not drawn) [Example 19, 6-chloro-N-(naphthalene-1-sulfonyl)-4-phenyl-3,4-dihydro-2H-1-benzopyran-4-carboxamide]",3 to 10,≥ 150,3 to 10,+++ (≥350)
"O=C(NS(=O)(=O)c1cccc2ccccc12)C1COc2c(Br)cccc21 (stereo not drawn) [Example 21, 7-bromo-N-(naphthalene-1-sulfonyl)-2,3-dihydro-1-benzofuran-3-carboxamide]",3 to 10,50 to 150,3 to 10,++ (≥150 and <350)
"O=C(NS(=O)(=O)c1cccc2ccccc12)C1CCOc2ccccc21 (stereo not drawn) [Example 24, N-(naphthalene-1-sulfonyl)-3,4-dihydro-2H-1-benzopyran-4-carboxamide]",3 to 10,50 to 150,3 to 10,+++ (≥350)
"COc1cccc2c1OCC2C(=O)NS(=O)(=O)c1cccc2ccccc12 (stereo not drawn) [Example 25, 7-methoxy-N-(naphthalene-1-sulfonyl)-2,3-dihydro-1-benzofuran-3-carboxamide]",3 to 10,< 50,3 to 10,++ (≥150 and <350)
"CCCS(=O)(=O)NC(=O)C1COc2ccc(Cl)cc21 (stereo not drawn) [Example 28, 5-chloro-N-(propane-1-sulfonyl)-2,3-dihydro-1-benzofuran-3-carboxamide]",≥ 10,< 50,≥ 10,+ (<150)

# Other lines, results leading:
EC50 [1] [µM],Emax [2] [%],EC50 [3] [µM],Maximum % activity (with co-corrector),Structure (SMILES)
< 3,≥ 150,< 3,+++ (≥350),"CCC1(C(=O)NS(=O)(=O)c2cccc3ccccc23)CCOc2cccc(OC)c21 (stereo not drawn) [Example 10, 4-ethyl-5-methoxy-N-(naphthalene-1-sulfonyl)-3,4-dihydro-2H-1-benzopyran-4-carboxamide]"
3 to 10,50 to 150,3 to 10,+++ (≥350),"CCC1(C(=O)NS(=O)(=O)c2cccc3ccccc23)COc2c(OC)cccc21 (stereo not drawn) [Example 15, 3-ethyl-7-methoxy-N-(naphthalene-1-sulfonyl)-2,3-dihydro-1-benzofuran-3-carboxamide]"
≥ 10,< 50,≥ 10,+ (<150),"Cc1ccccc1S(=O)(=O)NC(=O)C1(C)Cc2ccccc2O1 (stereo not drawn) [Example 16, 2-methyl-N-(2-methylbenzene-1-sulfonyl)-2,3-dihydro-1-benzofuran-2-carboxamide]"
≥ 10,< 50,≥ 10,+ (<150),"Cc1ccccc1S(=O)(=O)NC(=O)C1Cc2ccccc2O1 (stereo not drawn) [Example 17, N-(2-methylbenzene-1-sulfonyl)-2,3-dihydro-1-benzofuran-2-carboxamide]"
3 to 10,< 50,< 3,++ (≥150 and <350),"COc1cccc2c1C(C(=O)NS(=O)(=O)c1cccc3ccccc13)CO2 (stereo not drawn) [Example 20, 4-methoxy-N-(naphthalene-1-sulfonyl)-2,3-dihydro-1-benzofuran-3-carboxamide]"
3 to 10,≥ 150,3 to 10,+++ (≥350),"CCC1(C(=O)NS(=O)(=O)c2cccc3ccccc23)COc2c(Br)cccc21 (stereo not drawn) [Example 22, 7-bromo-3-ethyl-N-(naphthalene-1-sulfonyl)-2,3-dihydro-1-benzofuran-3-carboxamide]"
< 3,< 50,< 3,++ (≥150 and <350),"CCC1(C(=O)NS(=O)(=O)c2cccc3ccccc23)COc2ccccc21 (stereo not drawn) [Example 23, 3-ethyl-N-(naphthalene-1-sulfonyl)-2,3-dihydro-1-benzofuran-3-carboxamide]"
≥ 10,< 50,≥ 10,+ (<150),"CC(C)c1ccc(S(=O)(=O)NC(=O)C2(C)Cc3ccccc3O2)cc1 (stereo not drawn) [Example 26, 2-methyl-N-[4-(propan-2-yl)benzene-1-sulfonyl]-2,3-dihydro-1-benzofuran-2-carboxamide]"
≥ 10,< 50,≥ 10,+ (<150),"Cc1ccccc1S(=O)(=O)NC(=O)C1COc2ccc(Cl)cc21 (stereo not drawn) [Example 27, 5-chloro-N-(2-methylbenzene-1-sulfonyl)-2,3-dihydro-1-benzofuran-3-carboxamide]"
≥ 10,< 50,≥ 10,+ (<150),"Cc1ccccc1S(=O)(=O)NC(=O)C1COc2ccccc21 (stereo not drawn) [Example 29, N-(2-methylbenzene-1-sulfonyl)-2,3-dihydro-1-benzofuran-3-carboxamide]"
